Reference: PubChem BioAssay (NCI)
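Method: 48-hour compound exposure of cells in 96-well plates, five concentrations, linear interpolation of endpoints. GI50 marks 50% less growth. The concentration for full growth arrest is given as TGI.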

Experiments:
Assay in all cases: growth of human tumour cells (NCI), 48 h
RPMI-8226 leukemia = tested on: RPMI-8226 leukemia
EKVX NSCLC = tested on: EKVX NSCLC
K-562 leukemia = tested on: K-562 leukemia
NCI-H226 lung = tested on: NCI-H226 lung
SK-MEL-5 melanoma = tested on: SK-MEL-5 melanoma
HOP-92 NSCLC = tested on: HOP-92 NSCLC
CCRF-CEM leukemia = tested on: CCRF-CEM leukemia
CAKI-1 renal = tested on: CAKI-1 renal
IGROV1 ovarian = tested on: IGROV1 ovarian
NCI-H23 lung = tested on: NCI-H23 lung

SMILES | TGI (RPMI-8226 leukemia) | GI50 (EKVX NSCLC) | TGI (EKVX NSCLC) | TGI (K-562 leukemia) | TGI (NCI-H226 lung) | TGI (SK-MEL-5 melanoma) | GI50 (HOP-92 NSCLC) | TGI (HOP-92 NSCLC) | TGI (CCRF-CEM leukemia) | TGI (CAKI-1 renal) | TGI (IGROV1 ovarian) | TGI (NCI-H23 lung) | GI50 (RPMI-8226 leukemia) | GI50 (K-562 leukemia) | GI50 (NCI-H226 lung) | GI50 (SK-MEL-5 melanoma) | GI50 (CCRF-CEM leukemia) | GI50 (CAKI-1 renal) | GI50 (IGROV1 ovarian) | GI50 (NCI-H23 lung)
C/C(=C/c1c(C)[nH]c(=O)[nH]c1=O)C(=O)O | > 1380 µM | 1030 µM | > 1380 µM | > 1380 µM | > 1370 µM | > 1370 µM | > 1380 µM | > 1380 µM | > 1380 µM | > 1380 µM | > 1380 µM | > 1380 µM | – | – | – | – | – | – | – | –
COc1cccc(/C=N/n2c(Cc3ccc(Cl)cc3)n[nH]c2=O)c1 | > 100 µM | – | > 84 µM | > 100 µM | > 72.3 µM | > 100 µM | – | 52.1 µM | > 100 µM | > 81.9 µM | > 100 µM | > 70.3 µM | – | – | – | – | – | – | – | –
CC(CC(C)(C)[N+](C)(C)C)[N+](C)(C)C (configuration not stated) | > 100 µM | – | > 100 µM | > 100 µM | > 100 µM | > 100 µM | – | > 100 µM | > 100 µM | > 100 µM | > 100 µM | > 100 µM | – | – | – | – | – | – | – | –
COc1ccc(/C=C/C(c2cc(OC)c(OC)c(OC)c2)n2cncn2)cc1O (configuration not stated) | 42.2 µM | 6.07 µM | > 100 µM | > 100 µM | > 100 µM | 35.4 µM | 67 µM | > 100 µM | > 100 µM | > 100 µM | > 100 µM | > 100 µM | 0.037 µM | 0.032 µM | 5.93 µM | 0.0458 µM | 0.032 µM | 2.83 µM | 5.83 µM | 3.47 µM
